Test results: US20090270443A1, “1-AMINO IMIDAZO-CONTAINING COMPOUNDS AND METHODS” (priority 2004, published 2009)

Compound	melting point
CC(C)Nn1c(CO)nc2c(N)nc3cccnc3c21 [Example 6, [4-Amino-1-(isopropylamino)-1H-imidazo[4,5-c][1,5]naphthyridin-2-yl]methanol]	242 to 243 °C
Cc1nc(N)c2nc(C)n(NC3CCOCC3)c2c1C [Example 32, 2,6,7-Trimethyl-N^1-(tetrahydropyran-4-yl)-1H-imidazo[4,5-c]pyridine-1,4-diamine]	240 to 242 °C
CCOCc1nc2c(N)nc(C)c(C)c2n1NCc1ccccc1 [Example 21, N^1-Benzyl-2-ethoxymethyl-6,7-dimethyl-1H-imidazo[4,5-c]pyridine-1,4-diamine]	149 to 151 °C
CCOCc1nc2c(N)nc(C)c(C)c2n1NCCCS(C)(=O)=O [Example 39, 2-(Ethoxymethyl)-6,7-dimethyl-N^1-[3-(methylsulfonyl)propyl]-1H-imidazo[4,5-c]pyridine-1,4-diamine]	150 to 155 °C
CCc1nc2c(N)nc(C)c(C)c2n1NC1CCOCC1 [Example 48, 2-Ethyl-6,7-dimethyl-N^1-(tetrahydropyran-4-yl)-1H-imidazo[4,5-c]pyridine-1,4-diamine]	191 to 193 °C
CCOCc1nc2c(N)nc(C)c(C)c2n1NCc1cccnc1 [Example 19, 2-Ethoxymethyl-6,7-dimethyl-N^1-(pyridin-3-yl)methyl-1H-imidazo[4,5-c]pyridine-1,4-diamine]	147 to 149 °C
CCOCc1nc2c(N)nc(C)c(C)c2n1NC(C)C [Example 1, 2-(Ethoxymethyl)-N^1-isopropyl-6,7-dimethyl-1H-imidazo[4,5-c]pyridine-1,4-diamine]	110 to 120 °C
Cc1nc(N)c2nc(CO)n(NC(C)C)c2c1C [Example 12, (4-Amino-1-isopropylamino-6,7-dimethyl-1H-imidazo[4,5-c]pyridin-2-yl)methanol]	257 to 259 °C
CCOCc1nc2c(N)nc(C)c(C)c2n1NC1CCC1 [Example 23, N^1-Cyclobutyl-2-ethoxymethyl-6,7-dimethyl-1H-imidazo[4,5-c]pyridine-1,4-diamine]	139 to 141 °C
CCOCc1nc2c(N)nc(C)c(C)c2n1NCCCNC(=O)C1CCCCC1 [Example 14, N-{3-[(4-Amino-2-ethoxymethyl-6,7-dimethyl-1H-imidazo[4,5-c]pyridin-1-yl)amino]propyl}cyclohexanecarboxamide]	166 to 168 °C
CCOCc1nc2c(N)nc(C)c(C)c2n1NCCCNC(=O)OCC [Example 49]	148 to 150 °C
Nc1nc2cccnc2c2c1nc(CO)n2NCc1ccccc1 [Example 35, (4-Amino-1-benzylamino-1H-imidazo[4,5-c][1,5]naphthyridin-2-yl)methanol]	237 to 239 °C
COCCc1nc2c(N)nc(C)c(C)c2n1NC1CCOCC1 [Example 51, 2-(2-Methoxyethyl)-6,7-dimethyl-N^1-(tetrahydropyran-4-yl)-1H-imidazo[4,5-c]pyridine-1,4-diamine]	110 to 120 °C
Cc1nc(N)c2nc(CO)n(NC3CCCCC3)c2c1C [Example 18, (4-Amino-1-cyclohexylamino-6,7-dimethyl-1H-imidazo[4,5-c]pyridin-2-yl)methanol]	> 250 °C
Cc1nc(N)c2nc(CCO)n(NC3CCOCC3)c2c1C [Example 50, 2-[4-Amino-6,7-dimethyl-1-(tetrahydropyran-4-yl)amino-1H-imidazo[4,5-c]pyridin-2-yl]ethanol]	190 to 192 °C
Cc1nc(N)c2nc(CO)n(NC3CCC3)c2c1C [Example 24, (4-Amino-1-cyclobutylamino-6,7-dimethyl-1H-imidazo[4,5-c]pyridin-2-yl)methanol]	211 to 213 °C
CCOCc1nc2c(N)nc3cccnc3c2n1NC(C)C [Example 4, 2-(Ethoxymethyl)-N^1-isopropyl-1H-imidazo[4,5-c][1,5]naphthyridine-1,4-diamine]	150 to 152 °C
CCOCc1nc2c(N)ncc(C)c2n1NC(C)C [Example 2, 2-(Ethoxymethyl)-N^1-isopropyl-7-methyl-1H-imidazo[4,5-c]pyridine-1,4-diamine]	119 to 121 °C
CCc1nc2c(N)nc(C)c(C)c2n1NC1CCCCC1 [Example 29, N^1-Cyclohexyl-2-ethyl-6,7-dimethyl-1H-imidazo[4,5-c]pyridine-1,4-diamine]	190 to 192 °C
Cc1nc(N)c2nc(C)n(NC(C)C)c2c1C [Example 11, N^1-Isopropyl-2,6,7-trimethyl-1H-imidazo[4,5-c]pyridine-1,4-diamine]	203 to 205 °C
CCOCc1nc2c(N)nc(C)c(C)c2n1NC1CCCCC1 [Example 17, N^1-Cyclohexyl-2-ethoxymethyl-6,7-dimethyl-1H-imidazo[4,5-c]pyridine-1,4-diamine]	108 to 110 °C
OCc1nc2cnc3cccnc3c2n1NC1CCOCC1 [Example 38, [1-(Tetrahydro-2H-pyran-4-yl)amino-1H-imidazo[4,5-c][1,5]naphthyridin-2-yl]methanol]	203 to 205 °C

Compound	melting point
Cc1nc(N)c2nc(CO)n(NC3CCCC3)c2c1C [Example 47, (4-Amino-1-cyclopentylamino-6,7-dimethyl-1H-imidazo[4,5-c]pyridin-2-yl)methanol]	254 to 256 °C
CCOCc1nc2c(N)nc(C)c(C)c2n1NCc1ccc(Cl)c(Cl)c1 [Example 45, N^1-(3,4-Dichlorobenzyl)-2-ethoxymethyl-6,7-dimethyl-1H-imidazo[4,5-c]pyridine-1,4-diamine]	186 to 188 °C
CCc1nc2c(N)nc3cccnc3c2n1NC(C)C [Example 7, 2-Ethyl-N^1-isopropyl-1H-imidazo[4,5-c][1,5]naphthyridine-1,4-diamine]	212 to 213 °C
CCOCc1nc2cnc3cccnc3c2n1NC1CCOCC1 [Example 36, 2-Ethxoymethyl-N-(tetrahydro-2H-pyran-4-yl)-1H-imidazo[4,5-c][1,5]naphthyridin-1-amine]	130 to 133 °C
CCOCc1nc2c(N)nc(C)c(C)c2n1NCCCNC(=O)NC(C)C [Example 16, 1-{3-[(4-Amino-2-ethoxymethyl-6,7-dimethyl-1H-imidazo[4,5-c]pyridin-1-yl)amino]propyl}-3-isopropylurea]	203 to 205 °C
CCOCc1nc2c(N)nc(C)c(C)c2n1NC1CCN(S(C)(=O)=O)CC1 [Example 40, 2-(Ethoxymethyl)-6,7-dimethyl-N^1-[1-(methylsulfonyl)piperidin-4-yl]-1H-imidazo[4,5-c]pyridine-1,4-diamine]	127 to 131 °C
CCc1nc2c(N)nc3cccnc3c2n1NCCCNS(C)(=O)=O [Example 8, N-{3-[(4-amino-2-ethyl-1H-imidazo[4,5-c][1,5]naphthyridin-1-yl)amino]propyl}methanesulfonamide]	176 to 178 °C
CCCc1nc2c(N)nc(C)c(C)c2n1NC1CCCCC1 [Example 33, N^1-Cyclohexyl-6,7-dimethyl-2-propyl-1H-imidazo[4,5-c]pyridine-1,4-diamine]	177 to 179 °C
CCOCc1nc2c(N)nc(C)c(C)c2n1N(C)C [Example 9, 2-(Ethoxymethyl)-N^1,N^1,6,7-tetramethyl-1H-imidazo[4,5-c]pyridine-1,4-diamine]	170 to 171 °C
Cc1nc(N)c2ncn(N(C)C)c2c1C [Example 10, N^1,N^1,6,7-Tetramethyl-1H-imidazo[4,5-c]pyridine-1,4-diamine]	205 to 207 °C
CCOCc1nc2c(N)nc3cccnc3c2n1NCc1ccccc1 [Example 34, N^1-Benzyl-2-ethxoymethyl-1H-imidazo[4,5-c][1,5]naphthyridine-1,4-diamine]	169 to 171 °C
CCOCc1nc2c(N)nc(C)cc2n1NC(C)C [Example 3, 2-(Ethoxymethyl)-N^1-isopropyl-6-methyl-1H-imidazo[4,5-c]pyridine-1,4-diamine]	139 to 141 °C
CCOCc1nc2c(N)nc(C)c(C)c2n1NC1CCCC1 [Example 46, N^1-Cyclopentyl-2-ethoxymethyl-6,7-dimethyl-1H-imidazo[4,5-c]pyridine-1,4-diamine]	130 to 132 °C
Cc1nc(N)c2nc(C)n(NC3CCCCC3)c2c1C [Example 28, N^1-Cyclohexyl-2,6,7-trimethyl-1H-imidazo[4,5-c]pyridine-1,4-diamine]	242 to 244 °C
Cc1nc(N)c2nc(C)n(NCCCNS(C)(=O)=O)c2c1C [Example 15, N-{3-[(4-Amino-2,6,7-trimethyl-1H-imidazo[4,5-c]pyridin 1-yl)amino]propyl}methanesulfonamide]	215 to 217 °C
Cc1nc(N)c2nc(CO)n(NC3CCOCC3)c2c1C [Example 26, [4-Amino-6,7-dimethyl-1-(tetrahydropyran-4-yl)amino-1H-imidazo[4,5-c]pyridin-2-yl]methanol]	> 250 °C
Cc1nc(N)c2nc(CO)n(NCc3cccnc3)c2c1C [Example 20, [4-Amino-6,7-dimethyl-1-(pyridin-3-yl)methylamino-1H-imidazo[4,5-c]pyridin-2-yl]methanol]	258 to 260 °C
CCOCc1nc2c(N)nc3cccnc3c2n1NC1CCOCC1 [Example 37, 2-Ethxoymethyl-N^1-(tetrahydro-2H-pyran-4-yl)-1H-imidazo[4,5-c][1,5]naphthyridine-1,4-diamine]	191 to 193 °C
CCOCc1nc2cnc(C)c(C)c2n1NC1CCOCC1 [Example 27, 2-Ethoxymethyl-6,7-dimethyl-N-(tetrahydropyranyl)-1H-imidazo[4,5-c]pyridin-1-amine]	94 to 97 °C
Cc1nc(N)c2nc(CO)n(NCc3ccccc3)c2c1C [Example 22, (4-Amino-1-benzylamino-6,7-dimethyl-1H-imidazo[4,5-c]pyridin-2-yl)methanol]	> 250 °C
CCOCc1nc2c(N)nc(C)c(C)c2n1NC1CCOCC1 [Example 25, 2-Ethoxymethyl-6,7-dimethyl-N^1-(tetrahydropyran-4-yl)-1H-imidazo[4,5-c]pyridine-1,4-diamine]	120 to 122 °C
CCOCc1nc2c(N)nc(C)c(C)c2n1NCCCNS(C)(=O)=O [Example 13, N-{3-[(4-Amino-2-ethoxymethyl-6,7-dimethyl-1H-imidazo[4,5-c]pyridin-1-yl)amino]propyl}methanesulfonamide]	147 to 149 °C
